Tests used:
Assay type in all cases: in vivo
[1] = tested on: Italian ryegrass (Lolium multiflorum); assay: Test A preemergence, visual injury rating; conditions: 0 to 100 scale (0 no effect, 100 complete control)
How it was run: (§1)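 Visual 0–100 rating (100 = complete control) taken about 10 d post-treatment relative to untreated checks. Preemergence: directed soil spray on sown loam/sand pots. Postemergence: seedlings 2–10 cm, 1–2 leaf. Non-phytotoxic solvent formulation with surfactant.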

[2] = tested on: barnyardgrass (Echinochloa crus-galli); assay: Test A preemergence, visual injury rating; conditions: 0 to 100 scale (0 no effect, 100 complete control)
How it was run: as §1

[3] = tested on: giant foxtail (Setaria faberii); assay: Test A preemergence, visual injury rating; conditions: 0 to 100 scale (0 no effect, 100 complete control)
How it was run: as §1

[4] = tested on: kochia (Kochia scoparia); assay: Test A preemergence, visual injury rating; conditions: 0 to 100 scale (0 no effect, 100 complete control)
How it was run: as §1

[5] = tested on: pigweed (Amaranthus retroflexus); assay: Test A preemergence, visual injury rating; conditions: 0 to 100 scale (0 no effect, 100 complete control)
How it was run: as §1

[6] = tested on: ragweed (common ragweed, Ambrosia elatior); assay: Test A preemergence, visual injury rating; conditions: 0 to 100 scale (0 no effect, 100 complete control)
How it was run: as §1

[7] = tested on: Italian ryegrass (Lolium multiflorum); assay: Test A postemergence, visual injury rating; conditions: 0 is no effect, 100 is complete control
How it was run: as §1

[8] = tested on: barnyardgrass (Echinochloa crus-galli); assay: Test A postemergence, visual injury rating; conditions: 0 is no effect, 100 is complete control
How it was run: as §1

[9] = tested on: blackgrass (Alopecurus myosuroides); assay: Test A postemergence, visual injury rating; conditions: 0 is no effect, 100 is complete control
How it was run: as §1

[10] = tested on: corn (Zea mays); assay: Test A postemergence, visual injury rating; conditions: 0 is no effect, 100 is complete control
How it was run: as §1

[11] = tested on: galium (catchweed bedstraw, Galium aparine); assay: Test A postemergence, visual injury rating; conditions: 0 is no effect, 100 is complete control
How it was run: as §1

[12] = tested on: giant foxtail (Setaria faberii); assay: Test A postemergence, visual injury rating; conditions: 0 is no effect, 100 is complete control
How it was run: as §1

[13] = tested on: kochia (Kochia scoparia); assay: Test A postemergence, visual injury rating; conditions: 0 is no effect, 100 is complete control
How it was run: as §1

[14] = tested on: pigweed (Amaranthus retroflexus); assay: Test A postemergence, visual injury rating; conditions: 0 is no effect, 100 is complete control
How it was run: as §1

[15] = tested on: ragweed (common ragweed, Ambrosia elatior); assay: Test A postemergence, visual injury rating; conditions: 0 is no effect, 100 is complete control
How it was run: as §1

[16] = tested on: wheat (Triticum aestivum); assay: Test A postemergence, visual injury rating; conditions: 0 is no effect, 100 is complete control
How it was run: as §1

[17] = tested on: barnyardgrass (Echinochloa crus-galli); assay: Test B flooded paddy test, plant response rating; conditions: 250 g ai/ha; Flood; scale of 0 to 100 where 0 is no effect and 100 is complete control; 13 to 15 days
How it was run: (§2)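 Test compounds are applied straight into paddy water held 3 cm above the soil surface, with that flood maintained for the whole test. After 13 to 15 days in the greenhouse, each species is scored visually relative to controls.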

[18] = tested on: ducksalad (Heteranthera limosa); assay: Test B flooded paddy test, plant response rating; conditions: 250 g ai/ha; Flood; scale of 0 to 100 where 0 is no effect and 100 is complete control; 13 to 15 days
How it was run: as §2

[19] = tested on: rice (Oryza sativa); assay: Test B flooded paddy test, plant response rating; conditions: 250 g ai/ha; Flood; scale of 0 to 100 where 0 is no effect and 100 is complete control; 13 to 15 days
How it was run: as §2

[20] = tested on: sedge, umbrella (small-flower umbrella sedge, Cyperus difformis); assay: Test B flooded paddy test, plant response rating; conditions: 250 g ai/ha; Flood; scale of 0 to 100 where 0 is no effect and 100 is complete control; 13 to 15 days
How it was run: as §2

SMILES | Ryegrass, Italian plant response rating ([1]; 125 g ai/ha) | Ryegrass, Italian plant response rating ([1]; 500 g ai/ha) | Barnyardgrass plant response rating ([2]; 125 g ai/ha) | Barnyardgrass plant response rating ([2]; 500 g ai/ha) | Foxtail, Giant plant response rating ([3]; 125 g ai/ha) | Foxtail, Giant plant response rating ([3]; 500 g ai/ha) | Kochia plant response rating ([4]; 125 g ai/ha) | Kochia plant response rating ([4]; 500 g ai/ha) | Pigweed plant response rating ([5]; 125 g ai/ha) | Pigweed plant response rating ([5]; 500 g ai/ha) | Ragweed plant response rating ([6]; 125 g ai/ha) | Ragweed plant response rating ([6]; 500 g ai/ha) | Ryegrass, Italian plant response rating (0 to 100 scale) ([7]; 125 g ai/ha) | Ryegrass, Italian plant response rating (0 to 100 scale) ([7]; 500 g ai/ha) | Barnyardgrass plant response rating (0 to 100 scale) ([8]; 125 g ai/ha) | Barnyardgrass plant response rating (0 to 100 scale) ([8]; 500 g ai/ha) | Blackgrass plant response rating (0 to 100 scale) ([9]; 125 g ai/ha) | Blackgrass plant response rating (0 to 100 scale) ([9]; 500 g ai/ha) | Corn plant response rating (0 to 100 scale) ([10]; 125 g ai/ha) | Corn plant response rating (0 to 100 scale) ([10]; 500 g ai/ha) | other results
O=C(OCC(F)(F)F)c1c(F)cccc1Oc1ncc(Cl)cn1 [Compound 48] | 0 | 0 | 0 | 10 | 0 | 10 | 0 | 0 | 0 | 0 | 0 | 0 | 0 | 0 | 0 | 30 | 0 | 20 | 0 | 0 | Galium plant response rating (0 to 100 scale) ([11]; 125 g ai/ha): 0; Galium plant response rating (0 to 100 scale) ([11]; 500 g ai/ha): 10; Foxtail, Giant plant response rating (0 to 100 scale) ([12]; 125 g ai/ha): 0; Foxtail, Giant plant response rating (0 to 100 scale) ([12]; 500 g ai/ha): 20; Kochia plant response rating (0 to 100 scale) ([13]; 125 g ai/ha): 0; Kochia plant response rating (0 to 100 scale) ([13]; 500 g ai/ha): 0; Pigweed plant response rating (0 to 100 scale) ([14]; 125 g ai/ha): 20; Pigweed plant response rating (0 to 100 scale) ([14]; 500 g ai/ha): 40; Ragweed plant response rating (0 to 100 scale) ([15]; 125 g ai/ha): 0; Ragweed plant response rating (0 to 100 scale) ([15]; 500 g ai/ha): 0; Wheat plant response rating (0 to 100 scale) ([16]; 125 g ai/ha): 0; Wheat plant response rating (0 to 100 scale) ([16]; 500 g ai/ha): 0; Plant response rating, Barnyardgrass [17]: 20; Plant response rating, Ducksalad [18]: 0; Plant response rating, Rice [19]: 20; Plant response rating, Sedge, Umbrella [20]: 0
N#CCOC(=O)c1c(F)cccc1Oc1ncc(Cl)cn1 [Compound 49] | 0 | 0 | 0 | 0 | 0 | 0 | 0 | 0 | 0 | 0 | 0 | 0 | 0 | 0 | 0 | 0 | 0 | 0 | 0 | 0 | Galium plant response rating (0 to 100 scale) ([11]; 125 g ai/ha): 0; Galium plant response rating (0 to 100 scale) ([11]; 500 g ai/ha): 0; Foxtail, Giant plant response rating (0 to 100 scale) ([12]; 125 g ai/ha): 0; Foxtail, Giant plant response rating (0 to 100 scale) ([12]; 500 g ai/ha): 0; Kochia plant response rating (0 to 100 scale) ([13]; 125 g ai/ha): 0; Kochia plant response rating (0 to 100 scale) ([13]; 500 g ai/ha): 0; Pigweed plant response rating (0 to 100 scale) ([14]; 125 g ai/ha): 0; Pigweed plant response rating (0 to 100 scale) ([14]; 500 g ai/ha): 0; Ragweed plant response rating (0 to 100 scale) ([15]; 125 g ai/ha): 0; Ragweed plant response rating (0 to 100 scale) ([15]; 500 g ai/ha): 0; Wheat plant response rating (0 to 100 scale) ([16]; 125 g ai/ha): 0; Wheat plant response rating (0 to 100 scale) ([16]; 500 g ai/ha): 0; Plant response rating, Barnyardgrass [17]: 20; Plant response rating, Ducksalad [18]: 0; Plant response rating, Rice [19]: 20; Plant response rating, Sedge, Umbrella [20]: 0

Reference: patent US11053204B2, “Pyrimidinyloxy benzene derivatives as herbicides” (FMC Corporation, priority 2015, dated 2021)
